The record followed here is patent US4992439A, “Pyridazine carboxylic acids and esters” (Bristol-Myers Squibb Company, priority 1990, dated 1991).

Values after ≈ are worked out from the molar mass of the structure shown.

This assay concerns human platelet aggregation (ADP-induced). Format: cell-based. Conditions: human platelet rich plasma; ADP final concentration 0.5 mcg/mL; compounds in DMSO; read-out: Inhibition of Human Platelet Aggregation, IC50 vs. ADP.
Procedure: The aggregometer method of Born, C.V.R., J. Physiol., (London), 1962, 162, 67-68, as modified by Mustard, J. F., et al., J. Lab. Clin. Med. 1964, 64, 548-599 was used to assess the in vitro activity of the various compounds as to the inhibition of adenosine diphosphate (ADP) and collagen-induced platelet aggregation. The human volunteer donor's arm is cleansed with 70% ethyl alcohol. A sterile 20 ml syringe and needle are used to withdraw 20 ml of blood. The blood is immediately added to a test tube containing 3.8% sodium citrate to prevent clotting (1 part citrate to 9 parts blood).
Platelet rich plasma (PRP) was separated by centrifugation for 10 minutes at 1000 rpm (140 xg) from citrated (3.8%) human blood. All glassware used for preparation of PRP is silicon treated. ADP in final concentration of 0.5 mcg/mL or 0.05 mL of a collagen suspension prepared according to the method described by Evans, G., et al., J. Exp. Med., 1968, 128, 877-894 was used to induce aggregation. The various compounds tested were dissolved in dimethylsulfoxide (DMSO) so that 5 mcl added to the platelet rich plasma would yield the desired test concentration. Vehicle control trials were done and compared with aggregation induced in platelet rich plasma containing various concentrations of the test compounds. Dose response curves were obtained and Inhibitor Concentration (IC50) values calculated.
`COC(=O)CCCCCCCCn1nc(-c2ccccc2)c(-c2ccccc2)cc1=O` [Example 1, Methyl 6-oxo-3,4-diphenyl-1(6H)-pyridazinenonanoate]: the IC50 stood at 21 µg/mL (≈ 50.2 µM). For `O=C(O)CCCCCCCCn1nc(-c2ccccc2)c(-c2ccccc2)cc1=O` [Example 2, 6-Oxo-3,4-diphenyl-1(6H)-pyridazinenonanoic acid] the value was 2.9 µg/mL (≈ 7.17 µM); for `COC(=O)CCCCCCCn1nc(-c2ccccc2)c(-c2ccccc2)cc1=O` [Example 3, Methyl 6-Oxo-3,4-diphenyl-1(6H)pyridazinyloctanoate], 7.7 µg/mL (≈ 19 µM). For `O=C(O)CCCCCCCn1nc(-c2ccccc2)c(-c2ccccc2)cc1=O` [Example 4, 6-Oxo-3,4-diphenyl-1(6H)-pyridazinyloctanoic Acid] the value was 1.6 µg/mL (≈ 4.1 µM); for `COC(=O)COc1cccc(CCn2nc(-c3ccccc3)c(-c3ccccc3)cc2=O)c1` [Example 5, Methyl [3-[2-(1,6-dihydro-6-oxo-3,4-diphenyl-1-pyridazinyl)ethyl]phenoxy]acetate], 0.75 µg/mL (≈ 1.7 µM). For the compound `O=C(O)COc1cccc(CCn2nc(-c3ccccc3)c(-c3ccccc3)cc2=O)c1` [Example 6, [3-[2-(1,6-Dihydro-6-oxo-3,4-diphenyl-1-pyridazinyl)ethyl]phenoxy]acetic Acid], the IC50 is 1 µg/mL (≈ 2.34 µM).
